Assay results taken from ChEMBL document CHEMBL1201862, “PubChem BioAssay data set” (2004).
Active and inactive are the calls of the source.

How the values were obtained:
Large T antigen = Large T antigen (Simian virus 40, UniProt P03070); format: functional, Betapolyomavirus macacae;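 note: Confirmatory-stage PubChem screen for compounds that inhibit SV40 T antigen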
[1] = viability loss in CEM21 cells – cell-based, CellTiter-Glo luminescence, cherry-picked, cytotoxicity control for viral fusion inhibitor project, dose response (AID 652042); format: functional;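 note: potency for signal decrease meaning cytotoxicity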
[2] = blockers of HIV-1 ZM109 envelope-driven cell-cell fusion – HeLa effector, CEM target cells, luciferase, cherry-pick, dose response (AID 652058); format: functional, cell-based;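 note: luciferase signal from HIV-1 Env mediated cell-cell fusion of effector and target cells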
[3] = HIV-1 AD8 envelope cell-cell fusion blockers – cherry-pick, dose response (AID 652062); format: functional, cell-based;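 note: luciferase signal from cell-cell fusion driven by HIV-1 clade B AD8 Env; potency is for inhibitors of fusion seen as a drop in luminescence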
[4] = blockers of HIV-1 envelope-mediated cell-cell fusion – cherry-pick, dose response (AID 652057); format: functional, cell-based
[5] = blockers of CRF-binding protein–CRF-R2 complex – cell-based, uHTS hits, 384-well, dose response (AID 651639); format: functional, Homo sapiens; settings: read-out: IC50_Mean
[6] = molecular target: T1, Corticotropin-releasing factor receptor 2/Corticotropin-releasing factor-binding protein (Homo sapiens, UniProt P24387+Q13324); assay: activators of CRF receptor 2 with binding protein – uHTS hits, confirmation (AID 602473); format: functional; settings: read-out: EC50_Mean
T1 sequence (Q13324 whole entry): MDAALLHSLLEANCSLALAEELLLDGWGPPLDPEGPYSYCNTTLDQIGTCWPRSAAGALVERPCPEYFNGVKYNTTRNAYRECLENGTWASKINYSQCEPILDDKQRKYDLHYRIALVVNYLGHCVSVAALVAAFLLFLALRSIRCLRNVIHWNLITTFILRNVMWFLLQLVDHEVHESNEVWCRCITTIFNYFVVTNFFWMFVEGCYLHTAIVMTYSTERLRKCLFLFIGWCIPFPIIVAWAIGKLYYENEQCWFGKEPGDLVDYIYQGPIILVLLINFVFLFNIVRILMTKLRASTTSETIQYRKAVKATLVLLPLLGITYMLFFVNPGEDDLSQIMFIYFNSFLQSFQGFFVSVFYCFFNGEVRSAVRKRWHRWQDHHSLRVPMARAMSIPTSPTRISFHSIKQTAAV
T1 sequence (P24387 whole entry): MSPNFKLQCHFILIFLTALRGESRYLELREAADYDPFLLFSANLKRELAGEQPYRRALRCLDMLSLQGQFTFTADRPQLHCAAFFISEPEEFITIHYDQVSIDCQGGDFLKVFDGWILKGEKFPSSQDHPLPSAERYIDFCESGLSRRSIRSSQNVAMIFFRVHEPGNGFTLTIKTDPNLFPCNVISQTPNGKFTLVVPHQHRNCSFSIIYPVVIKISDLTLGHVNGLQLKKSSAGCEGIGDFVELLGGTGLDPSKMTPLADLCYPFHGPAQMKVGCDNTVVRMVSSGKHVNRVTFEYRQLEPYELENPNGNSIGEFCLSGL

[7] = molecular target: T1, Corticotropin-releasing factor receptor 2/Corticotropin-releasing factor-binding protein; assay: Dose Response confirmation of uHTS hits for small molecule antagonists of the CRF-binding protein and CRF-R2 receptor complex.; format: functional; settings: read-out: IC50_Mean
Fatty acid synthase [8] = molecular target: T2, Fatty acid synthase (Homo sapiens, UniProt P49327); assay: inhibition of human FAS-TE enzyme activity – biochemical, endpoint fluorescence intensity, uHTS hits, dose response (AID 624327); format: functional;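 note: fluorescence from hydrolysis of an O-methyl fluorescein acyl ester substrate by the enzyme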
T2 sequence (P49327 whole entry): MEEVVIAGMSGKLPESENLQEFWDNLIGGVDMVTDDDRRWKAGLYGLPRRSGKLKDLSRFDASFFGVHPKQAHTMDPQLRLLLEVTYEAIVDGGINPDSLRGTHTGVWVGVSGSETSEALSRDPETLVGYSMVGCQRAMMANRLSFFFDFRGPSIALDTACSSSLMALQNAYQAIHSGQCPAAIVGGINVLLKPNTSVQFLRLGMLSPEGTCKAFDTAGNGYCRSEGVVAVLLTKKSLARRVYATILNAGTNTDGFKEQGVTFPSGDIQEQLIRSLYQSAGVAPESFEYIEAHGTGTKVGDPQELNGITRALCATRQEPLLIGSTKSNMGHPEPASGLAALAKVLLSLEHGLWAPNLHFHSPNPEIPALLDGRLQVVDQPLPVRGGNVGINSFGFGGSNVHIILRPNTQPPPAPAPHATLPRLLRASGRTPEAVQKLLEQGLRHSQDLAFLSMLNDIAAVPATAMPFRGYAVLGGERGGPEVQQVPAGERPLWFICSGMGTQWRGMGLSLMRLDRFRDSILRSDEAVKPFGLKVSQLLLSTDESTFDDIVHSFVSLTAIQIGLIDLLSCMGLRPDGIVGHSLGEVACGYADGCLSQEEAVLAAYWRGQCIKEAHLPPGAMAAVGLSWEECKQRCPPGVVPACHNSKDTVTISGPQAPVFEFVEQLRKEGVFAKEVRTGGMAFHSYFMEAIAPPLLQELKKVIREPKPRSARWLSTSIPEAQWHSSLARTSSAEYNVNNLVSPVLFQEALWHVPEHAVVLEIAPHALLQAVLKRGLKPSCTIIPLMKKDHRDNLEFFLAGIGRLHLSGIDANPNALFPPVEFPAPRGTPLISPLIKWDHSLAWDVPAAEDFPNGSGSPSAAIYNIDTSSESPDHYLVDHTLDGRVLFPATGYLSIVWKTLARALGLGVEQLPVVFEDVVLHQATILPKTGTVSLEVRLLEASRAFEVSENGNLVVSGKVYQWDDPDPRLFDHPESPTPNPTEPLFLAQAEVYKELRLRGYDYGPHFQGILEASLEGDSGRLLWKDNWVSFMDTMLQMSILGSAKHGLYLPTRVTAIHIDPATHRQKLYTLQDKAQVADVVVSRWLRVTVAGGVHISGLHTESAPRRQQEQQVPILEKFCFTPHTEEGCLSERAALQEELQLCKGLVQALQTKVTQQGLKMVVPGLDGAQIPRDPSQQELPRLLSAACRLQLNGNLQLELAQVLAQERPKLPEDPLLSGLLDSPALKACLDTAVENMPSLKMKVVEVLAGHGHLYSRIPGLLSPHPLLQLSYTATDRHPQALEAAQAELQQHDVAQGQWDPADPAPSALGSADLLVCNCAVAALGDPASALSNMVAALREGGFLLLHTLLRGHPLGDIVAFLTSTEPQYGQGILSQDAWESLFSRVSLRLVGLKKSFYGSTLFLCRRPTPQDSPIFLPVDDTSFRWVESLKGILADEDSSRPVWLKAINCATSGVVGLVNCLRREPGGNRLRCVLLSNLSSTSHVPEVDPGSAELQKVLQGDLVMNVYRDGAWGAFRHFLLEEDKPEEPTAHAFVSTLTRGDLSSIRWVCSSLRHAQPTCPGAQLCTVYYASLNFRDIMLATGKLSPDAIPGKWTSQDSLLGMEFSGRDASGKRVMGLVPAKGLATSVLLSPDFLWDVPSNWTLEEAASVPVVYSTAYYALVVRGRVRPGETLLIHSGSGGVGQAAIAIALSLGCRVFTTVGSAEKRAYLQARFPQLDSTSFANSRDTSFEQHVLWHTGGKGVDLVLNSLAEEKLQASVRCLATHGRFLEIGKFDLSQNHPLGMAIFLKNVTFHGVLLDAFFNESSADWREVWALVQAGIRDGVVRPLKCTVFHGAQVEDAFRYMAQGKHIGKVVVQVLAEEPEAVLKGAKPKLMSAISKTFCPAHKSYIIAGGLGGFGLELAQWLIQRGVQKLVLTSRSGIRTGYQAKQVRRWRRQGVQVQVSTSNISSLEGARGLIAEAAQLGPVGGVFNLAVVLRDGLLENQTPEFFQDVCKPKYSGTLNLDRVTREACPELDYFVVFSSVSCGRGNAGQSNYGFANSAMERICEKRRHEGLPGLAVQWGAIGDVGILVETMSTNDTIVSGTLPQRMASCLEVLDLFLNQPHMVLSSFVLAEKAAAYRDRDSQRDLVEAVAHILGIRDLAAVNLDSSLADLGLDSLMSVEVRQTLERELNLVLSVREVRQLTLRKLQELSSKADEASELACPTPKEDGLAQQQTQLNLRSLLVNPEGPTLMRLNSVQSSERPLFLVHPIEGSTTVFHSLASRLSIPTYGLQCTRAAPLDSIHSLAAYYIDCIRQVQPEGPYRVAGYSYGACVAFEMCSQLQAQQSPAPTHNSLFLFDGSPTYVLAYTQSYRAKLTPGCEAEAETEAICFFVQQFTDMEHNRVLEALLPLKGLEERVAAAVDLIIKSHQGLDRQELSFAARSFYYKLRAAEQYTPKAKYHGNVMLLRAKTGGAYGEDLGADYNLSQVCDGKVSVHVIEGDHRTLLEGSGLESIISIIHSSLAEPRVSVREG

Fatty acid synthase [9] = molecular target: T2, Fatty acid synthase; assay: inhibition of human FAS-TE enzyme activity – biochemical, kinetic fluorescence intensity, dose response (AID 624326); format: functional;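 note: rate of fluorescence rise from hydrolysis of a fluorogenic O-methyl fluorescein ester substrate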
[10] = molecular target: T3, DNA repair protein RAD52 homolog (Homo sapiens, UniProt P43351); format: functional, biochemical
T3 sequence (P43351 whole entry): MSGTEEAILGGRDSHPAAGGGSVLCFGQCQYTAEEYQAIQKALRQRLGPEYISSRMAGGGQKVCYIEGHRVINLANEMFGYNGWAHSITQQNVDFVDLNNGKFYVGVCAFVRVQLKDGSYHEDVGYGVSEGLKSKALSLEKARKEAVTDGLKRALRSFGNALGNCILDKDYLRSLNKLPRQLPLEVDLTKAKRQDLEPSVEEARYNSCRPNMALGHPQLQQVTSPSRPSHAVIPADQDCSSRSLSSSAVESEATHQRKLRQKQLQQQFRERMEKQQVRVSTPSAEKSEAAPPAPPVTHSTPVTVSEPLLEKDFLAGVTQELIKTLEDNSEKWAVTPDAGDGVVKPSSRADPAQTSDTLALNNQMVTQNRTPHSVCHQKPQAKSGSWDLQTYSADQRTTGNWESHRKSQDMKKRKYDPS

[11] = molecular target: Induced myeloid leukemia cell differentiation protein Mcl-1 (Homo sapiens, UniProt Q07820); format: functional
Induced myeloid leukemia cell differentiation protein Mcl-1, sequence (Q07820 whole entry): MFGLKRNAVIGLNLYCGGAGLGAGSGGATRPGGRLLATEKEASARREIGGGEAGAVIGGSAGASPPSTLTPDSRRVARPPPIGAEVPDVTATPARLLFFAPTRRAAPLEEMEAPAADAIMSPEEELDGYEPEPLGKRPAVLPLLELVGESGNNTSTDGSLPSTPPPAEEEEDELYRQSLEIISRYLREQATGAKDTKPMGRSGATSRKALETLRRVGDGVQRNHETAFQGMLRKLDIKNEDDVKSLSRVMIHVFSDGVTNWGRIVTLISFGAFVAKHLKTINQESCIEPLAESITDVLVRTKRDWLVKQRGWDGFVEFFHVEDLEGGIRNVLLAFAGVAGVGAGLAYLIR

[12] = molecular target: T4, Sentrin-specific protease 8 (Homo sapiens, UniProt Q96LD8); format: functional
T4 sequence (Q96LD8 whole entry): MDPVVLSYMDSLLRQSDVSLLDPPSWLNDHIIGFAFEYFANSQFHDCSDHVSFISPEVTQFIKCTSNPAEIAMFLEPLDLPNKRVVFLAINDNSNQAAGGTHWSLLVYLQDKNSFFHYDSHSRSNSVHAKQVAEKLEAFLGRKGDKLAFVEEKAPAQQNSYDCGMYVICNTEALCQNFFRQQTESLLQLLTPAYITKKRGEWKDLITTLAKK

[13] = molecular target: T4, Sentrin-specific protease 8; format: functional; remark: listed apart in the source
[14] = molecular target: T5, Replicative DNA helicase DnaB (Mycobacterium tuberculosis, UniProt P9WMR3); assay: DnaB intein splicing inhibitors, dose response, biochemical, cell-free fluorescence (AID 449749); format: functional
T5 sequence (P9WMR3 whole entry): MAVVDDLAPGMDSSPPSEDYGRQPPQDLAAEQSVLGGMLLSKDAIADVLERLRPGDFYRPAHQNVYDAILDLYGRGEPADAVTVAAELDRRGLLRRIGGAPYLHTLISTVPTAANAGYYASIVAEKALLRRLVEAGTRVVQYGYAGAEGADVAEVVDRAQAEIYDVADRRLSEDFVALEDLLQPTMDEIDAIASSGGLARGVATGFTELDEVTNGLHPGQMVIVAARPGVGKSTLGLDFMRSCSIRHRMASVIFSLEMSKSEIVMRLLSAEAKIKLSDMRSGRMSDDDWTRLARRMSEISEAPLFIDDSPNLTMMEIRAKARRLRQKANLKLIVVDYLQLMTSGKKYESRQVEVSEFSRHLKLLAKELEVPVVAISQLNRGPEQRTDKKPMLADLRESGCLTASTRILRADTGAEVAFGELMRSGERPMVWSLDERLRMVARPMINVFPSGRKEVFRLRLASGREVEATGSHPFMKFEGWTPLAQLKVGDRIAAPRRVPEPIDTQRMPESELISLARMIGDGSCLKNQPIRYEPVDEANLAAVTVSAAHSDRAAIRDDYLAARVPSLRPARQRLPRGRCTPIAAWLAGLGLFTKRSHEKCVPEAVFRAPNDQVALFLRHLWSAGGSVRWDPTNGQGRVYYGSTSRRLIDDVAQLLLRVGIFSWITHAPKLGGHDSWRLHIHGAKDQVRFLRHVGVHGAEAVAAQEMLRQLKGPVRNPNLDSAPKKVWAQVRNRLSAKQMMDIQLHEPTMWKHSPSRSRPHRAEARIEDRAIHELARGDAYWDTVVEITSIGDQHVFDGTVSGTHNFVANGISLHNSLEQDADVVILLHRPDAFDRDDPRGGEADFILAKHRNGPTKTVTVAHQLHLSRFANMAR

Protein RecA = molecular target: T6, Protein RecA (Mycobacterium tuberculosis, UniProt P9WHJ3); assay: Fluorescence Cell-Free Homogeneous Dose Retest to Identify Inhibitors of RecA-Intein Splicing Activity. [Related pubchem assays (depositor defined):AID2097, AID2223, AID489010, AID492950]; format: functional
T6 sequence (P9WHJ3 whole entry): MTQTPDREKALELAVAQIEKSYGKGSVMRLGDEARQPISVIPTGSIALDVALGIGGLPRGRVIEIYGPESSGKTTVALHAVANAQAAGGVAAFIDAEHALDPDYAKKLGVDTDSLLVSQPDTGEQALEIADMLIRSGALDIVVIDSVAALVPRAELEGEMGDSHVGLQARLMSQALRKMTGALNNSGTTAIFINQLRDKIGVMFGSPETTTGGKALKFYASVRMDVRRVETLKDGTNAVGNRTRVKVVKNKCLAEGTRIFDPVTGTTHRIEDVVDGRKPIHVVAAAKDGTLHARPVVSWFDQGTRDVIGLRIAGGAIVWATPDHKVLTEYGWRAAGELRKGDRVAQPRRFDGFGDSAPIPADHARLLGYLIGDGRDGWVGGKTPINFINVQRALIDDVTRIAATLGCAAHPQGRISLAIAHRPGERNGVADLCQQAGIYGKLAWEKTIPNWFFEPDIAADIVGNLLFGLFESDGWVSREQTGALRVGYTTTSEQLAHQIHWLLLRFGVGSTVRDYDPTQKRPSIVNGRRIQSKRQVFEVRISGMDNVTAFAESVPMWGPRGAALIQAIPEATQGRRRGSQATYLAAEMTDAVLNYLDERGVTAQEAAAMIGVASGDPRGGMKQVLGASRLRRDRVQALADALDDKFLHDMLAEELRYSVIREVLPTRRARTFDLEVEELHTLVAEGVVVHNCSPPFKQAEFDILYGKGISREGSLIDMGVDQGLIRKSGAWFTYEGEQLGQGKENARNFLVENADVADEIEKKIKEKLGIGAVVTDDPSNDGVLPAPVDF

Paired box protein Pax-8 = Paired box protein Pax-8 (Homo sapiens, UniProt Q06710); assay: PAX8 transcriptional activity inhibition in RMG-I – RMG-I cells, luciferase, cherry-pick, dose response (AID 687027); format: functional, cell-based;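 note: luciferase reporter driven by Pax8 target thyroperoxidase promoter measured by SteadyGlo luminescence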
Paired box protein Pax-8, sequence (Q06710 whole entry): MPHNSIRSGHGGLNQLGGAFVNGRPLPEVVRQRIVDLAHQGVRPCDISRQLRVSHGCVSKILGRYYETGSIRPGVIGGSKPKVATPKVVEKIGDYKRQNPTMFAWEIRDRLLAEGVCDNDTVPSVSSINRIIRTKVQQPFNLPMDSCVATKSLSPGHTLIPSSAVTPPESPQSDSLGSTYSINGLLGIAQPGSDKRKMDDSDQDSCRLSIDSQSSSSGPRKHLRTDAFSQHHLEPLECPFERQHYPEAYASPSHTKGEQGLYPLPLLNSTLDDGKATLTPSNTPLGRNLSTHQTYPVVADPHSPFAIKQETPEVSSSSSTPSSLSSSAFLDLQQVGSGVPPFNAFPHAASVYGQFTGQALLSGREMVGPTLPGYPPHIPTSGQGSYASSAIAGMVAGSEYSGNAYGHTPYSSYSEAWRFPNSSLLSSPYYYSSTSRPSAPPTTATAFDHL

[15] = HEK-293T viability loss after treatment – luminescence, T-cell screen hits, cytotoxicity control for TCR NF-kB inhibitor project, dose response (AID 489026); format: functional, cell-based;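 note: cells exposed to compound about 14 hours before the viability readout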

Large T antigen, sequence (P03070 whole entry, the tested form may be a part): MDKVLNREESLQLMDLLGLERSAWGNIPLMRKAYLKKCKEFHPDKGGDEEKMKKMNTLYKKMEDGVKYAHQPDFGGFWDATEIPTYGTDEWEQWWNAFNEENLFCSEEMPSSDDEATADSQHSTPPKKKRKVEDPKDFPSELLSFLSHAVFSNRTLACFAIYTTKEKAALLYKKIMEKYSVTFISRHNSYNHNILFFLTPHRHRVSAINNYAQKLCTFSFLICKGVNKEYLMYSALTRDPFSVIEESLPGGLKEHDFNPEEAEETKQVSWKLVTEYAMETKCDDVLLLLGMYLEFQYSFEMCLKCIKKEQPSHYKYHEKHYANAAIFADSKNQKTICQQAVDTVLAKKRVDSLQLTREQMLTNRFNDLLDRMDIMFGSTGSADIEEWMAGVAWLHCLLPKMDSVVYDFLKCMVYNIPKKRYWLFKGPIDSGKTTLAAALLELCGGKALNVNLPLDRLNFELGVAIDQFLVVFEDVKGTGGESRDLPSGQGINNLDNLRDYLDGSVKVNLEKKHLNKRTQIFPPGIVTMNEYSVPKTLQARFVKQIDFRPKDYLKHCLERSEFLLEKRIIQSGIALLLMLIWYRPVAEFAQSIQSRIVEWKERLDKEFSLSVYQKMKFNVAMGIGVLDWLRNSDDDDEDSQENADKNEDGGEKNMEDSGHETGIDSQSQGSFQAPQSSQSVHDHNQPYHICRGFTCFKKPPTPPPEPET

With `Cc1nc(C)c(-c2csc(Nc3ccc(N)cc3)n2)s1` the IC50 (Large T antigen) was 11.5 µM (active).

For `O=C(C[C@H]1CC[C@@H](NC(=O)c2cccc(F)c2)[C@@H](CO)O1)NCc1ccc(Oc2ccccc2)cc1`, the AC50 [1] was 58.1 µM (active), the AC50 [2] was 1.21 µM (active) and the AC50 [3] was 1.2 µM (active). For the same compound, the AC50 [4] was 0.525 µM (active).

For `Cn1c(N)c(C(=O)COC(=O)CNS(=O)(=O)c2ccc(Cl)c(Cl)c2)c(=O)n(C)c1=O`, the IC50 [5] was 9.63 µM (active), the EC50 [6] was > 53 µM (inactive) and the IC50 [7] was 30.8 µM (active).

In the case of `CC(C)(C)c1ccc(C(=O)NCC(=O)OCc2ccc([N+](=O)[O-])cc2)cc1`, the IC50 (Fatty acid synthase [8]) is reported as 2.66 µM (active) and the IC50 (Fatty acid synthase [9]) is reported as 1.69 µM (active).

With `CN(C)CCNC(=O)c1cccc(-c2cnc3c(NC=O)cc(/C=C/c4ccccc4)cn23)c1` the AC50 [10] was 2.21 µM (active).

For `C[C@H](C(=O)N(C)C[C@@H]1OCc2ccccc2-c2c(n(C)c3ccccc23)C(=O)N([C@@H](C)CO)C[C@H]1C)c1ccccc1`, the AC50 [1] was 22.5 µM (active), the AC50 [2] was 12 µM (active) and the AC50 [3] was 8.67 µM (active). For the same compound, the AC50 [4] was 4.94 µM (active).

With `CCOc1cc(/C=N/Nc2nc(-c3cccs3)c(NC(C)=O)s2)ccc1O` the IC50 (Large T antigen) was 30.5 µM (active) and the IC50 [11] was 3.51 µM (active).

For `CN/C(=C/[N+](=O)[O-])NCCSCc1ccc(CN(C)C)o1`, the AC50 [10] was 18 µM (active).

In the case of `Cc1cc([N+](=O)[O-])nn1CC(=O)N/N=C/c1ccccc1Br`, the IC50 (Fatty acid synthase [8]) is reported as 10.3 µM (active) and the IC50 (Fatty acid synthase [9]) is reported as 7.28 µM (active).

With `CCOC(=O)c1ccc(/N=c2\sc(C(=O)OC)cc(=O)n2CCCN2CCOCC2)cc1` the IC50 [5] was 4.53 µM (active), the EC50 [6] was > 53 µM (inactive) and the IC50 [7] was 4.49 µM (active).

In the case of `COc1cccc(N/C([S-])=C(/C(=O)c2ccc(OC(F)F)cc2)[n+]2ccccc2)c1`, the IC50 [12] is reported as 3.93 µM (active), the IC50 [13] is reported as 6 µM (active) and the AC50 [14] is reported as 23.9 µM (active). For the same compound, the EC50 (Protein RecA) was 8.62 µM (active).

In the case of `COc1ccc(OC)c(-c2nnc3n2N=C(c2ccc(OC)c(OC4CCCC4)c2)CS3)c1`, the AC50 (Paired box protein Pax-8) is reported as 3.49 µM (active) and the IC50 [15] is reported as 28.3 µM (inactive).
